Measured values published in BindingDB's records for doi:10.1021/acsmedchemlett.0c00369 (Shenyang Pharmaceutical University, 2021).

Target: Histone deacetylase 2 (Homo sapiens, UniProt Q92769)
Assay: Inhibition of recombinant full length C-terminal FLAG-tagged human HDAC2 expressed in baculovirus infected Sf9 cells using Boc-Lys(Ac)-AMC as substrate preincubated for 15 mins followed by substrate addition and measured after 60 mins by fluorescence based assay

Histone deacetylase 2, sequence (Q92769 whole entry): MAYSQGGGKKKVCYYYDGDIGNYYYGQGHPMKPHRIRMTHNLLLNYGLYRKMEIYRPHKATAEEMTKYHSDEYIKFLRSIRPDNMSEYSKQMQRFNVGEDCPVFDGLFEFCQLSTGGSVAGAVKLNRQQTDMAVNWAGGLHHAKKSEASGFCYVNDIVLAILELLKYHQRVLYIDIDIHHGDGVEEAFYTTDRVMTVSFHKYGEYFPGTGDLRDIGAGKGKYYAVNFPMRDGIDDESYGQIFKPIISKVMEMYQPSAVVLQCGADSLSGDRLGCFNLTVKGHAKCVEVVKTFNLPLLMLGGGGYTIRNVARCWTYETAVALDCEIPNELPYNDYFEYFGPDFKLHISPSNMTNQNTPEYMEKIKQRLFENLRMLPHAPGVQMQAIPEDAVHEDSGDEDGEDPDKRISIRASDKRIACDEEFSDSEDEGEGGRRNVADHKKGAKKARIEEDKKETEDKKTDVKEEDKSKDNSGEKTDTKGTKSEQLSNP

O=NC(Cc1ccc(O)c(Br)c1)C(=O)NCCSSCCNC(=O)C(Cc1ccc(O)c(Br)c1)N=O (stereo unspecified) [3-(3-bromo-4-hydroxy-phenyl)-N-[2-(2-{3-(3-bromo-4-hydroxy-phenyl)-2-[hydroxyimino]-propionylamino}-ethyldisulfanyl)-ethyl]-2-[hydroxyimino]-propionamide] showed an IC50 of 33 nM.
